Source: BindingDB's records for PubMed 35080403 (Yunnan University of Chinese Medicine, 2022)
pIC50: −log10 of the molar value.

Biological target: Maltase-glucoamylase (Homo sapiens, UniProt O43451)
Test: Inhibition of Alpha-glucosidase (unknown origin)

Maltase-glucoamylase, sequence (O43451 whole entry): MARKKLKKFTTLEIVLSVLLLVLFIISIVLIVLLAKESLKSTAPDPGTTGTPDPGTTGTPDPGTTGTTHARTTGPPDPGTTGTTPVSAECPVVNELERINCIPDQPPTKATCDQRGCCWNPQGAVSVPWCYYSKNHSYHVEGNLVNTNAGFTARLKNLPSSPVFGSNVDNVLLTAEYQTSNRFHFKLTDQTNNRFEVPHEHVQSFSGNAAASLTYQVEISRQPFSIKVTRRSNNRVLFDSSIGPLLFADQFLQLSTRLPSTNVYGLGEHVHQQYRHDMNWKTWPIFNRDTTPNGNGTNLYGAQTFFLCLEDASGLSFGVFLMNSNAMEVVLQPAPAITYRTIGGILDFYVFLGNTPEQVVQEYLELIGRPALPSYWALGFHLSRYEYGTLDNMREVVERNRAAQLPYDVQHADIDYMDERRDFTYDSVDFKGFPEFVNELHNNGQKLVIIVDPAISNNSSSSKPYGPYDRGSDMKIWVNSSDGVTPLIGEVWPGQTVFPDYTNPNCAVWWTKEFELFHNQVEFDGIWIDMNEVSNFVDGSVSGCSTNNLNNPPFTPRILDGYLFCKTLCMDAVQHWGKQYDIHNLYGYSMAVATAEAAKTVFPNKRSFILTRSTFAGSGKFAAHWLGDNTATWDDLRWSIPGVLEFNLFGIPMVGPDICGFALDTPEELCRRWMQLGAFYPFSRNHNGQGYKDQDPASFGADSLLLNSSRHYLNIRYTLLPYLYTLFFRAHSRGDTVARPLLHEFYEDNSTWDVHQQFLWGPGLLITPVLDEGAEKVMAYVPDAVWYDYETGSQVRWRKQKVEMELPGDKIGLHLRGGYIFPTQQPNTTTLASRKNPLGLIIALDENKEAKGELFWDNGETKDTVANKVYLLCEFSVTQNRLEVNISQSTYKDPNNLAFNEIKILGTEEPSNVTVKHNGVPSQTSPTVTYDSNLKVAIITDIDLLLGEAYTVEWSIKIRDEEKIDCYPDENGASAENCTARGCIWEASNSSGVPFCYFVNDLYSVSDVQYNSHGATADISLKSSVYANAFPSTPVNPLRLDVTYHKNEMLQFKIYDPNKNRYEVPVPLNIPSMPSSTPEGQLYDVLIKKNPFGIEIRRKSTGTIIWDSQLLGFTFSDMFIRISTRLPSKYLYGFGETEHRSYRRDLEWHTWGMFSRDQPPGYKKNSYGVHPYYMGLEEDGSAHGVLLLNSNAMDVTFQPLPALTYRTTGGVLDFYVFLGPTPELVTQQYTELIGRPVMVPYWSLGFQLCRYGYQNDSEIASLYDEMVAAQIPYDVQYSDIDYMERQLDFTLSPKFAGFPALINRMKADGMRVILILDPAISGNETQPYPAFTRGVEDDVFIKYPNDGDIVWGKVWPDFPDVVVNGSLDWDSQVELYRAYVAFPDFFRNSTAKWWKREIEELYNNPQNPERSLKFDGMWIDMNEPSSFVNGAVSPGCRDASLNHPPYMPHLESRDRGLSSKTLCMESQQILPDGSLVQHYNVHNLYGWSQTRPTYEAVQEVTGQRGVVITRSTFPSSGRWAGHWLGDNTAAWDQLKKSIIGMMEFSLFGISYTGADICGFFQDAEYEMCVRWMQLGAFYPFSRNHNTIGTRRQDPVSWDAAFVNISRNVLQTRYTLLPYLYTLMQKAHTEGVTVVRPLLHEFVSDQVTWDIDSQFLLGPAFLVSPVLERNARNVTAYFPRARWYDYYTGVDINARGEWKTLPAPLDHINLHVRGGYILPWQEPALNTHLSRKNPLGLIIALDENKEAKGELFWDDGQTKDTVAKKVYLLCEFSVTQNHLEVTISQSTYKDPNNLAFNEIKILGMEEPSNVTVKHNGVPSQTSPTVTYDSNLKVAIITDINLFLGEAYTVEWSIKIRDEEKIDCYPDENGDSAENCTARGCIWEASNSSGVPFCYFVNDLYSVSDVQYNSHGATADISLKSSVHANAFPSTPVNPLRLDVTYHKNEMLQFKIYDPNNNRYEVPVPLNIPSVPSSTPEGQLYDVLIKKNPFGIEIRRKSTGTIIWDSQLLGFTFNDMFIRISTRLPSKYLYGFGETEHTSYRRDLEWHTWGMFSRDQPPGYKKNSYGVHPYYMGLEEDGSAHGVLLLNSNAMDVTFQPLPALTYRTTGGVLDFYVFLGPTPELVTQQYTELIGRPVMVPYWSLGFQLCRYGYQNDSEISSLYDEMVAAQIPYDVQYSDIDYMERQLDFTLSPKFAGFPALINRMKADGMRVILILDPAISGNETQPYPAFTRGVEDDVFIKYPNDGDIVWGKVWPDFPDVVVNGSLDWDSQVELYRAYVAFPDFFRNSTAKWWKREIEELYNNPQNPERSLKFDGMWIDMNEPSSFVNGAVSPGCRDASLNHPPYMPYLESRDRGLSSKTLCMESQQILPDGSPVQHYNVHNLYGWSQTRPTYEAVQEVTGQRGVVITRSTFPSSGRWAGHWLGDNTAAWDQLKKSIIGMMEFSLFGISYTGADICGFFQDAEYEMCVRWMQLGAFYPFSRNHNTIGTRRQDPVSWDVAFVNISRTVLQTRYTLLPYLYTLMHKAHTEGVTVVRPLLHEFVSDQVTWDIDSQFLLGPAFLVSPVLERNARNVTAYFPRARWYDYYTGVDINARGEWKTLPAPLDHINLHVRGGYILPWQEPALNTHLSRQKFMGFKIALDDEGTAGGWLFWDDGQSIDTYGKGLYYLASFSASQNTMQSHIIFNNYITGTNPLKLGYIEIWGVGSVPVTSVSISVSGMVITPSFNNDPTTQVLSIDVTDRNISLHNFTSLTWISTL

SMILES: CC/C=C\C/C=C\CCC(=O)O[C@@]12[C@H](OC(=O)[C@@H](C)CC)[C@@H](C)[C@@]3(O)[C@@H](C(=O)C(CO)=C[C@]4(O)C(=O)C(C)=C[C@@H]34)[C@@H]1C2(C)C
- pIC50: 4.82
